Patent publication US12209071B2, “Triazine derivatives for treating diseases relating to neurotrophins” (AlzeCure Pharma AB, priority 2018, dated 2025)
pEC50: −log10 of the molar value.

Columns and labels:
[1] = target: T1, FGFR1 (Homo sapiens, UniProt P11362); experiment: Enzyme Fragment Complementation cell-based assay, FGFR1; settings: cryopreserved U2OS-cells expressing FGFR1; ligand 10 ng/mL; 3 hours incubation
T1 construct: expressed in transfected cells; host or cells: U2OS (cryopreserved)
T1 sequence (P11362 22-822): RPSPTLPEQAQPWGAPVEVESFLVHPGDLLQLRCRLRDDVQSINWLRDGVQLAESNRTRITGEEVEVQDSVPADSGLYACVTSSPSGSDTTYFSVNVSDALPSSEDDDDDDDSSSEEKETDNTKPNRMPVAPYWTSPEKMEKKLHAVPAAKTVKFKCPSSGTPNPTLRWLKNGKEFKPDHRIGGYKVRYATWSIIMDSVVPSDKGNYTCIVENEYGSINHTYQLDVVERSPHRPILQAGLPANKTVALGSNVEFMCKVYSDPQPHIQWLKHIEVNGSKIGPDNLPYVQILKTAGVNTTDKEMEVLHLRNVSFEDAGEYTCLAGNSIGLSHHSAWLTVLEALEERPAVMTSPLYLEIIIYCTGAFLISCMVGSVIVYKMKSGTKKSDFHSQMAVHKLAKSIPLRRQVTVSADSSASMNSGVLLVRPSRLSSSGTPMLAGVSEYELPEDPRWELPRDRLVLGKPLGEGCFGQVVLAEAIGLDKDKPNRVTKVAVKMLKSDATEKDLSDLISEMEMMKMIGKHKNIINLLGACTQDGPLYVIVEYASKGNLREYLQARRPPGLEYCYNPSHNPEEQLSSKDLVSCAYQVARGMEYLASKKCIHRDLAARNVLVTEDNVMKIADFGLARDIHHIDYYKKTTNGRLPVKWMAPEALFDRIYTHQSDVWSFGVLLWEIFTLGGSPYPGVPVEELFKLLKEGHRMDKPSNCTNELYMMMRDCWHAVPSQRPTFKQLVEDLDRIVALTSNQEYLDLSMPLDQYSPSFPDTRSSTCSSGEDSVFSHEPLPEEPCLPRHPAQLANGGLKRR
Source text: (§1) A high throughput cell-based screen has been used to identify positive modulators of TrkA, TrkB and TrkC. The screen involves the use of cell-based assay overexpressing TrkA, TrkB or TrkC. The purpose of the assay is to identify compounds that modulate neurotrophin signalling (Forsell et al 2012). The assay can be used in inhibitor mode using a high concentration of ligand, in modulator mode using an intermediate concentration and in agonist mode using a low concentration of ligand.
(§2) The assay uses Enzyme Fragment Complementation (EFC) technique, which is a proximity-based assay. Briefly, cells used in this assay over-express two fusion proteins, i.e. the receptor, which can be either one of TrkA, TrkB, TrkC, IGF1R or FGFR1, fused to a small peptide of beta-galactosidase and an adaptor protein, i.e. SHC1 (or any other Trk-adaptor protein) fused to the major part of beta-galactosidase. […] The proximity between the small activating peptide on the receptor and the major part of beta-galactosidase on the adaptor protein leads to an active beta-galactosidase enzyme. The activation of the receptor is quantified by measuring the amount of active beta-galactosidase by its conversion of a non-luminescent substrate into a luminescent product.
(§3) U2OS-cells, over-expressing TrkA or TrkB or TrkC, are plated in 96- or 384-well plates and incubated overnight. Alternatively, cryopreserved HEK293-cells expressing IGFR1 or cryopreserved U2OS-cells expressing FGFR1 were plated in 96- or 384-well plates. On the following day, test compound was pre-mixed with ligand (NGF, BDNF, NT-3, IGF-1 or basic fibroblast growth factor (bFGF(FGF-2))) and the ligand-compound mixture is then added to the cells to yield a final ligand concentration of 10 ng/mL. After 3 hours of incubation at room temperature, the incubation is stopped by the addition of a beta-galactosidase substrate mixture containing detergents. The substrate mixture is incubated for 60 minutes at ambient temperature. The luminescence is thereafter read by the use of a plate reader.

[2] = target: T2, TrkB (Homo sapiens, UniProt Q16620); experiment: Enzyme Fragment Complementation cell-based assay, TrkB; settings: U2OS-cells over-expressing TrkB; ligand 10 ng/mL; 3 hours incubation
T2 construct: expressed in transfected cells; host or cells: U2OS
T2 sequence (Q16620 32-822): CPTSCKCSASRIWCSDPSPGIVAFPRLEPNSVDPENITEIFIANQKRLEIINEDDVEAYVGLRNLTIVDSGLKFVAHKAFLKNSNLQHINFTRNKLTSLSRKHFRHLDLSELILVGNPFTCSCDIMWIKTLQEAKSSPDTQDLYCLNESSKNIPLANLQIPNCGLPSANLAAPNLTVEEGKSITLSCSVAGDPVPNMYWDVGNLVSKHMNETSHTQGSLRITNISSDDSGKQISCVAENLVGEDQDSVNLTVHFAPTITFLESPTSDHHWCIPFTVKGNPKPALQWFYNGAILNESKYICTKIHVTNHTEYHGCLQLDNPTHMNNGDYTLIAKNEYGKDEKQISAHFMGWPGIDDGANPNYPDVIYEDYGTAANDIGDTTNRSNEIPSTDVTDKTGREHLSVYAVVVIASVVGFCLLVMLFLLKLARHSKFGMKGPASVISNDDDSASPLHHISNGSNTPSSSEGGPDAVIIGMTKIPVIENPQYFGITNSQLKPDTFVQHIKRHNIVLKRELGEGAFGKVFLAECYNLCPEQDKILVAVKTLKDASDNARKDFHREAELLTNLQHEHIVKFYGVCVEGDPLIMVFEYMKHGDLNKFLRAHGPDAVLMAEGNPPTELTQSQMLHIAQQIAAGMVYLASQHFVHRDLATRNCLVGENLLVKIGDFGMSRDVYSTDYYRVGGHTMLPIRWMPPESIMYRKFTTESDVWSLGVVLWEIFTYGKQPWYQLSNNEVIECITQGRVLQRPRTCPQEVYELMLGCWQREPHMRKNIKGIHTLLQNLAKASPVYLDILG
Source text: as §1, §2, §3

[3] = target: T3, TrkA (Homo sapiens, UniProt P04629); experiment: Enzyme Fragment Complementation cell-based assay, TrkA; settings: U2OS-cells over-expressing TrkA; ligand 10 ng/mL; 3 hours incubation
T3 construct: expressed in transfected cells; host or cells: U2OS
T3 sequence (P04629 33-796): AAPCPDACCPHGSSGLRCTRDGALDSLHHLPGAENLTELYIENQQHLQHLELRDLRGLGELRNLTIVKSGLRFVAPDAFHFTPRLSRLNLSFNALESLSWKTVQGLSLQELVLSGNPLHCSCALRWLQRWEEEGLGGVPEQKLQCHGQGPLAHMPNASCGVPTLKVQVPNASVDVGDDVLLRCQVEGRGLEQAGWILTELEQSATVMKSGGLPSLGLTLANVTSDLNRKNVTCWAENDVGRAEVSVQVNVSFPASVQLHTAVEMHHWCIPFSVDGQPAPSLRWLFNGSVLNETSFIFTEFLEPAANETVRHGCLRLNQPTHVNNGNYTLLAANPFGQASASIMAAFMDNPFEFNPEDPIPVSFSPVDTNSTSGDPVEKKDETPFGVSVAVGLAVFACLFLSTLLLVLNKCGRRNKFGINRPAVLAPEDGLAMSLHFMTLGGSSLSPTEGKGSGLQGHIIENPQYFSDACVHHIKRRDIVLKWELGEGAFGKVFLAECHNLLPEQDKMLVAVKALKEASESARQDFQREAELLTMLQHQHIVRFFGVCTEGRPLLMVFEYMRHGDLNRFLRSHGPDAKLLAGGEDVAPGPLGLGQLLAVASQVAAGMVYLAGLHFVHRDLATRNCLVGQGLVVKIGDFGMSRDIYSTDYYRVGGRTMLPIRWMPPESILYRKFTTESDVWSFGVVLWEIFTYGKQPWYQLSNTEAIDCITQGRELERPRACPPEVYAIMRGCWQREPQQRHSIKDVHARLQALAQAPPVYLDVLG
Source text: as §1, §2, §3

[4] = target: T4, IGF1R (Homo sapiens, UniProt P08069); experiment: Enzyme Fragment Complementation cell-based assay, IGF1R; settings: cryopreserved HEK293-cells expressing IGFR1; ligand 10 ng/mL; 3 hours incubation
T4 construct: expressed in transfected cells; host or cells: HEK293 (cryopreserved)
T4 sequence (P08069 31-736 limits assumed): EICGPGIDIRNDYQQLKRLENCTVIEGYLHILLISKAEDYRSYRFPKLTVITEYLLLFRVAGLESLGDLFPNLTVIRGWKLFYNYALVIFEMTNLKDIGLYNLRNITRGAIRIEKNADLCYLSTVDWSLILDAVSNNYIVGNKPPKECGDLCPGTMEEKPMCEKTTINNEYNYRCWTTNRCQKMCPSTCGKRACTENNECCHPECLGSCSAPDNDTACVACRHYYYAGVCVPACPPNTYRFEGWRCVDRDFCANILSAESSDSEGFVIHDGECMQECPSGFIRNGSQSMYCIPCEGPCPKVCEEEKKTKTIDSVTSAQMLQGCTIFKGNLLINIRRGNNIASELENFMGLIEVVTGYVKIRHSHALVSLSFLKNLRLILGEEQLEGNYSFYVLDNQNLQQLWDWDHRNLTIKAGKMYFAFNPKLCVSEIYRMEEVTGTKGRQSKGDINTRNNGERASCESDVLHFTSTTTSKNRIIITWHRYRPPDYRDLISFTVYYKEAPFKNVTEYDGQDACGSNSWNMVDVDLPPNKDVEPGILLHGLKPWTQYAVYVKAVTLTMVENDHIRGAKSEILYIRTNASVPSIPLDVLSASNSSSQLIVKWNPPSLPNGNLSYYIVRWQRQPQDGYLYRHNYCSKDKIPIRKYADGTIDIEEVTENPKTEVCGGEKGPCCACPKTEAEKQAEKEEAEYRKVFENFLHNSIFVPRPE
T4 sequence (P08069 741-1367 limits assumed): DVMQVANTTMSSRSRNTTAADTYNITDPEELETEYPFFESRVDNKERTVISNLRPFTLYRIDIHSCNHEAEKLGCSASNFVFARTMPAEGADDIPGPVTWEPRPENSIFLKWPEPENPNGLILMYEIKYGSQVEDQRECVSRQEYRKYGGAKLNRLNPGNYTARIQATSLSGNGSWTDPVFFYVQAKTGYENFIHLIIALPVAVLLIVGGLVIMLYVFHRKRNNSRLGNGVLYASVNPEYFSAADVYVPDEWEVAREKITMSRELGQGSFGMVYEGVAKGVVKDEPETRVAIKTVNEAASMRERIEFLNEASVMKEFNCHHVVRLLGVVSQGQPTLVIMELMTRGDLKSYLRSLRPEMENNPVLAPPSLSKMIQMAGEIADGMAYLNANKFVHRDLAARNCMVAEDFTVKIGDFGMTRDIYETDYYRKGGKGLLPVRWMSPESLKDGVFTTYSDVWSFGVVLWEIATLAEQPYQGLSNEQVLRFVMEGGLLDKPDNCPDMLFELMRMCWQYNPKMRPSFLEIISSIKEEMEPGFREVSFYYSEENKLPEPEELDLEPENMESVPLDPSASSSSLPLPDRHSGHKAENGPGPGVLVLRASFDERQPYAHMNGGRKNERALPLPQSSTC
Source text: as §1, §2, §3

[5] = test system: ephrin type-B receptor 2 (EphB2); settings: Suzuki et al., FEBS Open Bio 2016; cited from earlier work
[6] = target: T5, TrkC (Homo sapiens, UniProt Q16288); experiment: Enzyme Fragment Complementation cell-based assay, TrkC; settings: U2OS-cells over-expressing TrkC; ligand 10 ng/mL; 3 hours incubation
T5 construct: expressed in transfected cells; host or cells: U2OS
T5 sequence (Q16288 32-839): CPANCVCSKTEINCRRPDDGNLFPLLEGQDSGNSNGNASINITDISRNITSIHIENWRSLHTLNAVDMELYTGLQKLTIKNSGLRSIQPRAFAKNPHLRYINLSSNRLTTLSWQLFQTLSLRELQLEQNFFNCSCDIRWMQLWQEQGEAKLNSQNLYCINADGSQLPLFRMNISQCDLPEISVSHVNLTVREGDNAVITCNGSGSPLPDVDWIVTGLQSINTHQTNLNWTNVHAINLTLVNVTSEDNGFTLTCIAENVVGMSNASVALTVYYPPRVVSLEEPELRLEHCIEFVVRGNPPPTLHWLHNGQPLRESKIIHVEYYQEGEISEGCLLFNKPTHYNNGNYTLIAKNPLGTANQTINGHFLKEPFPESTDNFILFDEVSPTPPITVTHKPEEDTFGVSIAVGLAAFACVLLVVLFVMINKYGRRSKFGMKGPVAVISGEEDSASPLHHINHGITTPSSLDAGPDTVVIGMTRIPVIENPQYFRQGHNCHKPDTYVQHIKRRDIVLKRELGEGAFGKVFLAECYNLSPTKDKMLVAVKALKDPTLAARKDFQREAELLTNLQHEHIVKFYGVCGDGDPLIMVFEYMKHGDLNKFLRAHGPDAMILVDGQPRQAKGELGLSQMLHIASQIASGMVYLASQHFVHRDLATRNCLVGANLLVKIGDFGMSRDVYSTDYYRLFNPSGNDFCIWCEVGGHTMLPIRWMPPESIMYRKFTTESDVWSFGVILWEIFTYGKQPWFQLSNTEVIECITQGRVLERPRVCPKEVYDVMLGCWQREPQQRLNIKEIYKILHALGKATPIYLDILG
Source text: as §1, §2, §3

Compound | pEC50 [1] | pEC50 [2] | pEC50 [3] | pEC50 [4] | inhibition of binding of β-amyloid oligomers to EphB2 [5] | pEC50 [6]
O=c1[nH]c(=O)n(-c2ccc(N3CCOCC3)cc2)c(=O)n1-c1ccc(Oc2ccccc2)cc1 [Example 10, 1-[4-(morpholin-4-yl)phenyl]-3-(4-phenoxyphenyl)-1,3,5-triazinane-2,4,6-trione] | 5.55 | 5.66 | 5.96 |  |  | 
COc1cccc(-n2c(=O)[nH]c(=O)n(-c3ccc(Oc4ccccc4)cc3)c2=O)c1 [Example 4, 1-(3-methoxyphenyl)-3-(4-phenoxyphenyl)-1,3,5-triazinane-2,4,6-trione] | 6.24 | 6.02 | 6.08 | 6.08 |  | 
N#Cc1cc(-n2c(=O)[nH]c(=O)n(-c3ccccc3)c2=O)ccc1Oc1ccccc1 [Example 12, 2-phenoxy-5-(2,4,6-trioxo-3-phenyl-1,3,5-triazinan-1-yl)benzonitrile] | 5.33 | 5.62 | 5.23 |  |  | 
Cc1cc(-n2c(=O)[nH]c(=O)n(C)c2=O)ccc1Oc1ccc(SC(F)(F)F)cc1 [toltrazuril, 1-methyl-3-(3-methyl-4-{4-[(trifluoromethyl)sulfanyl]phenoxy}phenyl)-1,3,5-triazinane-2,4,6-trione] |  |  |  |  | 30% | 
O=c1[nH]c(=O)n(-c2ccc(Oc3ccc(Cl)cc3)cc2)c(=O)n1-c1ccccc1 [Example 7, 1-[4-(4-chlorophenoxy)phenyl]-3-phenyl-1,3,5-triazinane-2,4,6-trione] |  |  | 5.41 | 5.59 |  | 
O=c1[nH]c(=O)n(-c2ccc(Oc3ccccc3)c(Br)c2)c(=O)n1-c1ccccc1 [Example 69, 1-(3-bromo-4-phenoxyphenyl)-3-phenyl-1,3,5-triazinane-2,4,6-trione] |  | 6.60 | 6.66 |  |  | 6.72
O=c1[nH]c(=O)n(-c2ccc(Nc3ccccc3)cc2)c(=O)n1-c1ccccc1 [Example 20, 1-phenyl-3-[4-(phenylamino)phenyl]-1,3,5-triazinane-2,4,6-trione] |  | 5.05 | 5.16 |  |  | 5.49
COc1cc(-n2c(=O)[nH]c(=O)n(-c3ccccc3)c2=O)ccc1Oc1ccccc1 [Example 11, 1-(3-methoxy-4-phenoxyphenyl)-3-phenyl-1,3,5-triazinane-2,4,6-trione] | 6.47 | 6.35 | 6.49 | 6.66 |  | 
Cn1c(=O)[nH]c(=O)n(-c2ccc(Oc3ccccc3)c(OCC3COC3)c2)c1=O [Example 24, 1-methyl-3-[3-(oxetan-3-ylmethoxy)-4-phenoxyphenyl]-1,3,5-triazinane-2,4,6-trione] |  | 6.21 | 6.30 |  |  | 6.66
CC(C)Oc1cc(-n2c(=O)[nH]c(=O)n(C)c2=O)ccc1Oc1ccccc1 [Example 26, 1-methyl-3-[4-phenoxy-3-(propan-2-yloxy)phenyl]-1,3,5-triazinane-2,4,6-trione] |  | 5.82 | 5.96 |  |  | 5.70
CC(C)Oc1cc(-n2c(=O)[nH]c(=O)n(-c3ccccc3)c2=O)ccc1Oc1ccccc1 [Example 27, 1-[4-phenoxy-3-(propan-2-yloxy)phenyl]-3-phenyl-1,3,5-triazinane-2,4,6-trione] |  | 6.43 | 6.44 |  |  | 6.48
COCCOc1cc(-n2c(=O)[nH]c(=O)n(-c3ccccc3)c2=O)ccc1Oc1ccccc1 [Example 29, 1-[3-(2-methoxyethoxy)-4-phenoxyphenyl]-3-phenyl-1,3,5-triazinane-2,4,6-trione] |  | 6.30 | 6.25 |  |  | 6.47
COCCOc1cc(-n2c(=O)[nH]c(=O)n(-c3ccc(Cl)cc3)c2=O)ccc1Oc1ccccc1 [Example 59, 1-(4-chlorophenyl)-3-[3-(2-methoxyethoxy)-4-phenoxyphenyl]-1,3,5-triazinane-2,4,6-trione] |  | 6.34 | 6.32 |  |  | 6.48
N#Cc1ccc(Oc2ccc(-n3c(=O)[nH]c(=O)n(-c4ccccc4)c3=O)cc2)cc1 [Example 8, 4-[4-(2,4,6-trioxo-3-phenyl-1,3,5-triazinan-1-yl)phenoxy]benzonitrile] |  |  | 5.80 | 5.66 |  | 
CCOc1cc(-n2c(=O)[nH]c(=O)n(-c3ccccc3)c2=O)ccc1Oc1ccccc1 [Example 16, 1-(3-ethoxy-4-phenoxyphenyl)-3-phenyl-1,3,5-triazinane-2,4,6-trione] |  | 6.43 | 6.41 |  |  | 6.29
COCCOc1cc(-n2c(=O)[nH]c(=O)n(-c3ccc(C)cc3)c2=O)ccc1Oc1ccccc1 [Example 56, 1-[3-(2-methoxyethoxy)-4-phenoxyphenyl]-3-(4-methylphenyl)-1,3,5-triazinane-2,4,6-trione] |  | 6.96 | 6.54 |  |  | 6.77
O=c1[nH]c(=O)n(-c2ccc(Oc3ccccc3)c(OC3CCOC3)c2)c(=O)n1-c1ccccc1 (stereo not drawn) [Example 17, 1-[3-(oxolan-3-yloxy)-4-phenoxyphenyl]-3-phenyl-1,3,5-triazinane-2,4,6-trione] |  | 6.12 | 6.11 |  |  | 6.32
COc1cc(Oc2ccccc2)ccc1-n1c(=O)[nH]c(=O)n(-c2ccccc2)c1=O [Example 9, 1-(2-methoxy-4-phenoxyphenyl)-3-phenyl-1,3,5-triazinane-2,4,6-trione] | 6.77 | 6.57 | 6.64 | 6.57 |  | 
Cn1c(=O)[nH]c(=O)n(-c2ccc(Oc3ccccc3)c(OC3CCOC3)c2)c1=O (stereo not drawn) [Example 22, 1-methyl-3-[3-(oxolan-3-yloxy)-4-phenoxyphenyl]-1,3,5-triazinane-2,4,6-trione] |  | 5.44 | 5.89 |  |  | 5.52
O=c1[nH]c(=O)n(-c2ccc(Oc3ccccc3)cc2)c(=O)n1-c1ccccc1 [Example 1, 1-(4-phenoxyphenyl)-3-phenyl-1,3,5-triazinane-2,4,6-trione] | 6.05 | 5.85 | 5.89 | 5.74 |  | 5.85
Cc1cn(Cc2ccccc2)c2ccc(-n3c(=O)[nH]c(=O)n(-c4ccccc4)c3=O)cc12 [Example 36, 1-(1-Benzyl-3-methyl-1H-indol-5-yl)-3-phenyl-1,3,5-triazinane-2,4,6-trione] |  | 6.34 | 6.02 |  |  | 5.82
COCCOc1cc(-n2c(=O)[nH]c(=O)n(-c3cccc(Cl)c3)c2=O)ccc1Oc1ccccc1 [Example 58, 1-(3-chlorophenyl)-3-[3-(2-methoxyethoxy)-4-phenoxyphenyl]-1,3,5-triazinane-2,4,6-trione] |  | 6.64 | 6.66 |  |  | 6.74
Cn1c(=O)[nH]c(=O)n(-c2ccc(Oc3ccccc3)c(Cl)c2)c1=O [Example 65, 1-(3-chloro-4-phenoxyphenyl)-3-methyl-1,3,5-triazinane-2,4,6-trione] |  | 5.80 | 5.35 |  |  | 6.49
O=c1[nH]c(=O)n(-c2ccc(OCc3ccccc3)cc2)c(=O)n1-c1ccccc1 [Example 6, 1-[4-(benzyloxy)phenyl]-3-phenyl-1,3,5-triazinane-2,4,6-trione] |  |  | 5.36 | 5.36 |  | 
Cc1ccc(-n2c(=O)[nH]c(=O)n(-c3ccc(Oc4ccccc4)c(C)c3)c2=O)s1 [Example 40, 1-(3-methyl-4-phenoxyphenyl)-3-(5-methylthiophen-2-yl)-1,3,5-triazinane-2,4,6-trione] |  | 6.55 | 6.59 |  |  | 6.85
Cc1cn(Cc2ccccc2)c2ccc(-n3c(=O)[nH]c(=O)n(C)c3=O)cc12 [Example 38, 1-(1-benzyl-3-methyl-1H-indol-5-yl)-3-methyl-1,3,5-triazinane-2,4,6-trione] |  | 5.38 | 5.35 |  |  | 5.62
